From patent US11351145B2, “Quercetin-based composition for treating rhinosinusitis” (APHABIO THERAPEUTICS, priority 2017, dated 2022)
Marks after values point to notes of the source that are not given here.

What was measured:
Format in all cases: in vivo, rabbit
[1] = tested on: rhinosinusitis induced by lipopolysaccharide (LPS); test: Goblet cell morphometric study (alcian blue staining) in rabbits with LPS-induced rhinosinusitis; details: for Number of alcian positive cells on 1 mm of epithelium / Number of goblet cells on 1 mm of epithelium / Ratio of alcian positive cells to total number of goblet cells, in %: rabbits, 2 mL intranasally in each nasal cavity once daily for seven days, M ± s.e.m., n = 6
Description: (§1) 42 male rabbits were used in this study. Animals were separated into seven groups, each containing six rabbits. The 1st group served as an untreated control, the second group was treated with a 0.9% NaCl solution, and five experimental groups were used to test the different formulations: onion peel extract, quercetin+2-(3,4-dihydroxybenzoyl)-2,4,6-trihydroxy-3(2H)-benzofuranone quercetin, quercetin-4′-glycoside and protocatechuic acid.
(§2) Rhinosinusitis was induced by introduction of 100 μL of 1% lipopoysaccharide (LPS) in each nasal cavity of the rabbits for three days (Dong-Hyun Kim et all, 2011).
(§3) The following concentrations of composition were tested:
(§4) onion peel water extract—1 mg/mL;
(§5) the mixture of quercetin—0.009 mg/mL and 2-(3,4-dihydroxybenzoyl)-2,4,6-trihydroxy-3(2H)-benzofuranone—0.001 mg/mL;
(§6) quercetin-4′-glycoside—0.25 mg/mL;
(§7) protocatechuic acid—0.25 mg/mL.
(§8) The compounds were diluted in solutions of 0.9-1% sodium chloride or in the solution containing 0.75% NaCl+0.25% NaHCO3 heated to 37° C. before administration. Except for the mixture of quercetin+2-(3,4-dihydroxybenzoyl)-2,4,6-trihydroxy-3(2H)-benzofuranone, which was suspension, all formulations were slightly opalescent-colored solutions.
(§9) 2 mL of the solutions was administered intranasally in each nasal cavity once daily for seven days. In order to get the maximal contact of nasal cavity with the tested substances, rabbits were kept in the “head down” position during administration.
(§10) The day after the last administration of the substances, animals were sacrificed by an overdose of a general anesthetics: Zoletil (Virbac, France) and Rometar (Bioveta, Czech Republic).
(§11) After macroscopic examinations, the nasal parts of rabbits' heads were fixed in 10% formaldehyde for 24 hours, then decalcified for 14 days in a hydrochloric acid/water (25:1) solution. Then, the noses of the animals were sectioned transversally at four levels: A—at the incisors; B— in a zone posterior to the incisors, C— at the second palatal ridge, and D—at the first premolar tooth. Tissues were then washed with water for 12 hours and embedded in paraffin using conventional methods. Histological sections of 3-5 μm were prepared from these tissues using microtome. In order to examine goblet cells and their glucosamine content, the tissue sections were stained with alcian blue at pH 2.5. Some tissue sections were re-stained with haematoxylin and eosin for further histological examinations.
(§12) Morphological investigation of histological preparations was performed using optical microscope CarlZeissAxioScopeA1 (Germany) at magnifications of 25×, 50×, 100×, 200× and 400×. Microphotographs of samples were taken using a digital camera AxioCamlCc 1 and AxioVisionRel.4.8 software (Germany). Morphometric measurements were taken using AxioVisionRel.4.8 software (Germany).
Goblet cells were counted within 1 mm of the respiratory zone of the epithelium.
All data were analyzed using descriptive statistics. The normality of data distribution was verified by Shapiro-Wilks test. In the case of normality, the mean and the standard error of the mean (s.e.m) were calculated and presented in tables together with n (number of values). […] The differences between groups were analyzed using parametric or non-parametric tests depending on the distribution type. The analysis of normally distributed data was done using the unifactorial dispersion analysis test (ANOVA), and further post-hoc analysis was done using Tukey's method. The data not corresponding to the normal distribution were analyzed using the non-parametric Kruskal-Wallis test, and the differences between groups were analyzed using the Mann-Whitney test. The difference was determined at a significance level of 0.05.

[2] = tested on: rhinosinusitis induced by lipopolysaccharide (LPS); test: Histological scoring of sino-nasal inflammation (score 0-3) in rabbits with LPS-induced rhinosinusitis; details: for Epithelial desquamation / Mucous gland damage: score 0-3 (0 absence of damage, 1 slightly, 2 moderately, 3 strongly damaged); for Epithelial desquamation / Mucous gland damage / Leukocyte infiltrate of mucous membrane / Mononuclear infiltrate of mucous membrane: median (1st; 3rd quartile), n = 6; for Epithelial desquamation / Mucous gland damage / Leukocyte infiltrate of mucous membrane / Mononuclear infiltrate of mucous membrane / Inflammation degree in different zones: Olfactory region / Inflammation degree in different zones: Respiratory region / Inflammation degree in different zones: Vestibule / Inflammation type: Post-inflammatory hyperplasia of goblet cells / Inflammation type: acute catarrhal rhinosinusitis / Inflammation type: acute purulent rhinosinusitis: intranasal once daily for seven days; for Leukocyte infiltrate of mucous membrane / Mononuclear infiltrate of mucous membrane: score 0-3 (0 none, 1: 1 to 5, 2: 6 to 10, 3: more than 10 cells in the zone); for Inflammation degree in different zones: Olfactory region / Inflammation degree in different zones: Respiratory region / Inflammation degree in different zones: Vestibule / Inflammation type: Post-inflammatory hyperplasia of goblet cells / Inflammation type: acute catarrhal rhinosinusitis / Inflammation type: acute purulent rhinosinusitis: scoring from 0 to 3, median (quartiles); for Overall therapeutic effect / activity against rhinosinusitis: conclusion of the histological examination, compared to non-treated or placebo-treated animals
Description: as §1, §2, §3, §4, §5, §6, §7, §8, §9, §10, §11, §12
The appearance, severity of acute catarrhal rhinosinusitis, acute purulent rhinosinusitis and occurrence of post-inflammatory hyperplasia of goblet cells were evaluated by examining the degree of inflammatory lesions in various zones: vestibule, respiratory region, olfactory region and paranasal sinuses.
The degree of epithelial desquamation and mucociliary gland damage was scored along a scale from 0 to 3, where:
The degree of mononuclear and leukocyte cell infiltration was evaluated by scoring from 0 to 3, where:
0—no mononuclear cells present in the zone of examination;
1—1 to 5 mononuclear cells present in the zone of examination;
2—6 to 10 mononuclear cells present in the zone of examination;
3—more than 10 mononuclear cells present in the zone of examination.
All data were analyzed using descriptive statistics. The normality of data distribution was verified by Shapiro-Wilks test. In the case of normality, the mean and the standard error of the mean (s.e.m) were calculated and presented in tables together with n (number of values). […] The differences between groups were analyzed using parametric or non-parametric tests depending on the distribution type. […]

[3] = tested on: rhinosinusitis induced by lipopolysaccharide (LPS); test: Visual (macroscopic) examination of rabbits with LPS-induced rhinosinusitis; details: in words; after seven days of treatment
Description: as §1, §2, §8, §9
The nasal cavities of the animals were subjected to visual examinations immediately after euthanasia.

| SMILES | Number of alcian positive cells on 1 mm of epithelium [1] | Number of goblet cells on 1 mm of epithelium [1] | Ratio of alcian positive cells to total number of goblet cells, in % [1] | Acute purulent rhinosinusitis (observation) ([2]; in words) | Post-inflammatory hyperplasia of the goblet cells (observation) ([2]; in words) | Epithelial desquamation [2] | Mucous gland damage [2] | Leukocyte infiltrate of mucous membrane [2] | Mononuclear infiltrate of mucous membrane [2] | Inflammation degree in different zones: Olfactory region [2] | Inflammation degree in different zones: Respiratory region [2] | Inflammation degree in different zones: Vestibule [2] | Inflammation type: Post-inflammatory hyperplasia of goblet cells [2] | Inflammation type: acute catarrhal rhinosinusitis [2] | Inflammation type: acute purulent rhinosinusitis [2] | Macroscopic (visual) examination findings [3] | Leucocyte cell infiltration of the mucous membranes versus control group ([2]; in words, Kruskal-Wallis and Mann-Whitney tests) | Overall therapeutic effect / activity against rhinosinusitis ([2]; in words) | Change in the number of goblet cells on 1 mm of epithelium compared to control ([1]; in words, ANOVA and Tukey's test) | Epithelial desquamation (observation) ([2]; in words) |
| --- | --- | --- | --- | --- | --- | --- | --- | --- | --- | --- | --- | --- | --- | --- | --- | --- | --- | --- | --- | --- |
| O=c1c(O)c(-c2ccc(O)c(O)c2)oc2cc(O)cc(O)c12 [Quercetin, quercetin] | 21.3 ± 6.49 | 43.0 ± 6.46 | 47.2 ± 12.33% | no sign | no sign | 0.5(0.0; 1.0) score | 0.5(0.0; 2.0) score | 2.0(2.0; 2.0) score | 1.0 (1.0; 1.0) score | 1.0 | 2.0 | 0.0 | 0.0 | 2.0 | 0.0 | No external changes were observed | – | – | – | – |
| O=C(O)c1ccc(O)c(O)c1 [Protocatechuic acid, protocatechuic acid] | 16.3 ± 5.82 | 44.0 ± 6.76 | 35.0 ± 9.01% | – | – | 0.0(0.0; 1.0) score | 1.0(0.0; 1.0) score | 0.5(0.0; 1.0)* score | 1.0 (1.0; 1.0) score | 1.0 | 1.0 | 0.0 | 0.5 | 1.0 | 0.0 | No external changes were observed | lower than in control group | moderate activity | – | – |
| O=c1c(O)c(-c2ccc(O[C@@H]3O[C@H](CO)[C@@H](O)[C@H](O)[C@H]3O)c(O)c2)oc2cc(O)cc(O)c12 [Quercetin-4′-glycoside, quercetin-4′-glycoside] | 21.8 ± 6.78 | 65.6 ± 6.03 | 35.8 ± 11.13% | – | – | 0.0(0.0; 0.0)* score | 0.0(0.0; 1.0) score | 1.0(1.0; 2.0) score | 1.0 (1.0; 1.0) score | 0.5 | 1.0 | 0.0 | 1.0 | 1.0 | 0.0 | No external changes were observed | – | moderate activity | Increase | not observed |
